This passage reports MIC and HC50 results from ChEMBL document CHEMBL6109153, “Development of Membrane-Targeting Osthole Derivatives Containing Pyridinium Quaternary Ammonium Moieties with Potent Anti-Methicillin-Resistant Staphylococcus aureus Properties” (J Med Chem, 2025).

For series [1], the system named is Staphylococcus aureus. The series can be described thus: Antibacterial activity against methicillin-resistant Staphylococcus aureus M22 incubated for 16 to 20 hrs by broth microdilution method. In kind it is functional. The note with it: time 16-20 hrs.
The subject of series [2] is Staphylococcus aureus. Description: Antibacterial activity against methicillin-resistant Staphylococcus aureus M17 incubated for 16 to 20 hrs by broth microdilution method. Conditions: time 16-20 hrs. The format is functional.
The test system of series [3] is Staphylococcus aureus. The series can be described thus: Antibacterial activity against Staphylococcus aureus ATCC 29213 incubated for 16 to 20 hrs by broth microdilution method. Conditions: time 16-20 hrs. The format is functional.
In series [4] the test system is Staphylococcus aureus. Description: Antibacterial activity against methicillin-resistant Staphylococcus aureus M21 incubated for 16 to 20 hrs by broth microdilution method. The format is functional. The note with it: time 16-20 hrs.
The subject of series [5] is Escherichia coli. Description: Antibacterial activity against Escherichia coli ATCC 25922 incubated for 16 to 20 hrs by broth microdilution method. In kind it is functional. Conditions: time 16-20 hrs.
Series [6] is described as follows: Hemolytic activity against sheep erythrocytes. In kind it is toxicity, cell-based, Ovis aries, Erythrocyte.
Series [7] deals with Staphylococcus aureus. The series can be described thus: Antibacterial activity against methicillin-resistant Staphylococcus aureus M12 incubated for 16 to 20 hrs by broth microdilution method. In kind it is functional. Conditions: time 16-20 hrs.
Series [8] relates to Staphylococcus aureus. The series can be described thus: Antibacterial activity against methicillin-resistant Staphylococcus aureus M20 incubated for 16 to 20 hrs by broth microdilution method. In kind it is functional. Conditions: time 16-20 hrs.
For series [9], the system named is Staphylococcus aureus. The series can be described thus: Antibacterial activity against methicillin-resistant Staphylococcus aureus M16 incubated for 16 to 20 hrs by broth microdilution method. In kind it is functional. The note with it: time 16-20 hrs.
The subject of series [10] is Staphylococcus aureus. The series can be described thus: Antibacterial activity against methicillin-resistant Staphylococcus aureus M13 incubated for 16 to 20 hrs by broth microdilution method. In kind it is functional. Conditions: time 16-20 hrs.
For series [11], the system named is Staphylococcus aureus. Description: Antibacterial activity against methicillin-resistant Staphylococcus aureus M11 incubated for 16 to 20 hrs by broth microdilution method. In kind it is functional. The note with it: time 16-20 hrs.
Series [12] relates to Staphylococcus aureus. Description: Antibacterial activity against methicillin-resistant Staphylococcus aureus M23 incubated for 16 to 20 hrs by broth microdilution method. In kind it is functional. The note with it: time 16-20 hrs.
For series [13], the system named is Staphylococcus aureus. The series can be described thus: Antibacterial activity against methicillin-resistant Staphylococcus aureus M14 incubated for 16 to 20 hrs by broth microdilution method. In kind it is functional. The note with it: time 16-20 hrs.

Converted amounts (≈) assume the structure as drawn.

Turning to `CC(C)=CCc1c(OCCCSc2cc[n+](CC(=O)N(C)c3ccccc3)cc2)ccc2ccc(=O)oc12.[Br-]`, the MIC in [1] is 8 µg/mL; in [2], 8 µg/mL; in series [3], 8 µg/mL; in series [4] it was 8 µg/mL; in [5] it was above 128 µg/mL; in [7] it was 16 µg/mL. In addition, the minimum inhibitory concentration (MIC) in series [8] came out at 4 µg/mL; in [9] it was 8 µg/mL; in [10] it was 16 µg/mL; in [11], 4 µg/mL; in series [12] it was 8 µg/mL; in [13] it was 4 µg/mL. In series [6], the concentration for 50% haemolysis (HC50) was above 160 µg/mL.
Turning to `CCCCCCNC(=O)C[n+]1ccc(SCCCCCOc2ccc3ccc(=O)oc3c2CC=C(C)C)cc1.[Br-]`, the MIC in series [1] was 2 µg/mL; in series [2], 2 µg/mL; in series [3] it was 64 µg/mL; in series [4] it was 2 µg/mL; in series [5], above 128 µg/mL; in [7], 2 µg/mL. Moreover, the minimum inhibitory concentration (MIC) in [8] worked out at 4 µg/mL; in [9], 2 µg/mL; in series [10], 2 µg/mL; in [11] it was 2 µg/mL; in series [12], 2 µg/mL; in series [13], 2 µg/mL. In series [6], this compound had a 50% haemolytic concentration (HC50) above 160 µg/mL.
Take `CC(C)=CCc1c(OCCCSc2cc[n+](CC(=O)N3CCOCC3)cc2)ccc2ccc(=O)oc12.[Br-]`: the minimal inhibitory concentration (MIC) is 32 µg/mL in [1]; 64 µg/mL in series [2]; 128 µg/mL in series [3]; 32 µg/mL in [4]; above 128 µg/mL in series [5]; 128 µg/mL in series [7]. The minimal inhibitory concentration (MIC) in [8] was found to be 64 µg/mL; in [9], 64 µg/mL; in series [10], 128 µg/mL; in [11], 32 µg/mL; in [12] it was 128 µg/mL; in [13] it was 64 µg/mL. In series [6], this compound came in with an HC50 above 160 µg/mL.
In [5], `C[C@@H](O)[C@H]1C(=O)N2C(C(=O)O)=C(S[C@@H]3CN[C@H](C(=O)N(C)C)C3)[C@H](C)[C@H]12` [MEROPENEM] came in with a minimal inhibitory concentration (MIC) of 0.063 µg/mL (≈ 0.164 µM).
For `CC(C)=CCc1c(OCCCCCSc2cc[n+](CC(=O)N(CC(C)C)CC(C)C)cc2)ccc2ccc(=O)oc12.[Br-]`, the MIC was 2 µg/mL in series [1]; 2 µg/mL in [2]; 1 µg/mL in series [3]; 2 µg/mL in series [4]; above 128 µg/mL in [5]; 8 µg/mL in series [7]. In addition, the MIC came to 8 µg/mL in series [8]; 16 µg/mL in series [9]; 8 µg/mL in series [10]; 8 µg/mL in [11]; 8 µg/mL in [12]; 8 µg/mL in series [13]. In addition, the HC50 in series [6] is above 160 µg/mL.
On to `CCCCCNC(=O)C[n+]1ccc(SCCCOc2ccc3ccc(=O)oc3c2CC=C(C)C)cc1.[Br-]`, for which the minimum inhibitory concentration (MIC) came out at 2 µg/mL in series [1]; 2 µg/mL in series [2]; 2 µg/mL in series [3]; 2 µg/mL in series [4]; 64 µg/mL in series [5]; 4 µg/mL in [7]. In addition, the MIC in series [8] stood at 2 µg/mL; in [9], 4 µg/mL; in series [10], 8 µg/mL; in [11], 2 µg/mL; in [12], 8 µg/mL; in series [13], 2 µg/mL. This compound gave an HC50 in series [6] above 160 µg/mL.
For the compound `CCCNC(=O)C[n+]1ccc(SCCCCCOc2ccc3ccc(=O)oc3c2CC=C(C)C)cc1.[Br-]`, the MIC is 8 µg/mL in series [1]; 8 µg/mL in [2]; 2 µg/mL in series [3]; 8 µg/mL in series [4]; above 128 µg/mL in [5]; 8 µg/mL in [7]. In addition, the minimal inhibitory concentration (MIC) worked out at 2 µg/mL in [8]; 2 µg/mL in [9]; 8 µg/mL in [10]; 2 µg/mL in series [11]; 4 µg/mL in series [12]; 2 µg/mL in [13]. Also, the HC50 in series [6] is 190 µg/mL.
As for `CCCN(CCC)C(=O)C[n+]1ccc(SCCCCCOc2ccc3ccc(=O)oc3c2CC=C(C)C)cc1.[Br-]`, the MIC in series [1] was 1 µg/mL; in series [2], 2 µg/mL; in [3], 1 µg/mL; in series [4], 1 µg/mL; in [5] it was above 128 µg/mL; in series [7], 2 µg/mL. Besides, the MIC was 1 µg/mL in [8]; 1 µg/mL in series [9]; 4 µg/mL in series [10]; 1 µg/mL in series [11]; 2 µg/mL in series [12]; 1 µg/mL in series [13]. In series [6], the HC50 was above 160 µg/mL.
Turning to `CCCNC(=O)C[n+]1ccc(SCCCCOc2ccc3ccc(=O)oc3c2CC=C(C)C)cc1.[Br-]`, the MIC was 2 µg/mL in series [1]; 8 µg/mL in series [2]; 16 µg/mL in series [3]; 2 µg/mL in [4]; above 128 µg/mL in series [5]; 16 µg/mL in [7]. Moreover, the MIC in series [8] is 8 µg/mL; in series [9], 8 µg/mL; in series [10] it was 16 µg/mL; in series [11] it was 4 µg/mL; in [12], 8 µg/mL; in [13], 8 µg/mL. The same compound gave an HC50 in series [6] above 160 µg/mL.
Regarding `CCCNC(=O)C[n+]1ccc(SCCCOc2ccc3ccc(=O)oc3c2CC=C(C)C)cc1.[Br-]`, the MIC is 8 µg/mL in series [1]; 16 µg/mL in series [2]; 8 µg/mL in series [3]; 8 µg/mL in series [4]; above 128 µg/mL in series [5]; 16 µg/mL in series [7]. The MIC in series [8] was determined as 8 µg/mL; in series [9], 8 µg/mL; in series [10], 32 µg/mL; in series [11], 8 µg/mL; in series [12], 8 µg/mL; in series [13] it was 8 µg/mL. The compound further registered a 50% haemolytic concentration (HC50) in series [6] above 160 µg/mL.
Regarding `CC(C)=CCc1c(OCCCCSc2cc[n+](CC(=O)N3CCOCC3)cc2)ccc2ccc(=O)oc12.[Br-]`, the minimum inhibitory concentration (MIC) in [1] was 32 µg/mL; in [2], 32 µg/mL; in series [3], 32 µg/mL; in series [4], 32 µg/mL; in [5], above 128 µg/mL; in series [7], 64 µg/mL. In addition, the minimal inhibitory concentration (MIC) in series [8] was 32 µg/mL; in series [9], 32 µg/mL; in series [10], 64 µg/mL; in series [11], 32 µg/mL; in [12], 32 µg/mL; in [13], 32 µg/mL. For the same compound, the 50% haemolytic concentration (HC50) in series [6] was above 160 µg/mL.
In the case of `CCCCNC(=O)C[n+]1ccc(SCCCCOc2ccc3ccc(=O)oc3c2CC=C(C)C)cc1.[Br-]`, the minimal inhibitory concentration (MIC) was 4 µg/mL in series [1]; 4 µg/mL in [2]; 8 µg/mL in series [3]; 4 µg/mL in series [4]; above 128 µg/mL in series [5]; 4 µg/mL in [7]. The MIC in series [8] was found to be 2 µg/mL; in series [9], 2 µg/mL; in [10], 4 µg/mL; in series [11], 2 µg/mL; in series [12], 4 µg/mL; in series [13], 2 µg/mL. Besides, the HC50 in series [6] was above 160 µg/mL.
`CC(C)=CCc1c(OCCCSc2cc[n+](CC(=O)N(C(C)C)C(C)C)cc2)ccc2ccc(=O)oc12.[Br-]`: the MIC is 4 µg/mL in series [1]; 4 µg/mL in series [2]; 4 µg/mL in series [3]; 4 µg/mL in series [4]; above 128 µg/mL in series [5]; 8 µg/mL in series [7]. In addition, the minimum inhibitory concentration (MIC) in [8] was found to be 2 µg/mL; in series [9] it was 4 µg/mL; in series [10], 8 µg/mL; in series [11] it was 2 µg/mL; in series [12], 4 µg/mL; in series [13], 2 µg/mL. The same compound displayed an HC50 in series [6] above 160 µg/mL.
Consider `CC(C)=CCc1c(OCCCCCSc2cc[n+](CC(=O)N(C(C)C)C(C)C)cc2)ccc2ccc(=O)oc12.[Br-]`, for which the MIC was 2 µg/mL in series [1]; 2 µg/mL in [2]; 2 µg/mL in series [3]; 2 µg/mL in series [4]; above 128 µg/mL in series [5]; 4 µg/mL in series [7]. Also, the MIC was 2 µg/mL in [8]; 4 µg/mL in series [9]; 4 µg/mL in [10]; 1 µg/mL in series [11]; 2 µg/mL in series [12]; 2 µg/mL in [13]. Besides, the HC50 in [6] is above 160 µg/mL.
Regarding `CCCCCNC(=O)C[n+]1ccc(SCCCCOc2ccc3ccc(=O)oc3c2CC=C(C)C)cc1.[Br-]`, the minimal inhibitory concentration (MIC) in series [1] was 4 µg/mL; in series [2] it was 2 µg/mL; in [3] it was 4 µg/mL; in series [4], 4 µg/mL; in [5], above 128 µg/mL; in series [7], 4 µg/mL. For the same compound, the MIC in [8] amounted to 1 µg/mL; in series [9], 2 µg/mL; in series [10], 4 µg/mL; in series [11] it was 2 µg/mL; in series [12], 1 µg/mL; in series [13], 1 µg/mL. In addition, the concentration for 50% haemolysis (HC50) in series [6] was above 160 µg/mL.
Take `CC(C)=CCc1c(OCCCCSc2cc[n+](CC(=O)N(C(C)C)C(C)C)cc2)ccc2ccc(=O)oc12.[Br-]`: the MIC in series [1] is 2 µg/mL; in series [2] it was 2 µg/mL; in series [3], 2 µg/mL; in [4], 2 µg/mL; in series [5], above 128 µg/mL; in [7] it was 4 µg/mL. Also, the minimum inhibitory concentration (MIC) in [8] was found to be 1 µg/mL; in series [9], 2 µg/mL; in series [10], 4 µg/mL; in series [11], 1 µg/mL; in series [12], 2 µg/mL; in series [13], 2 µg/mL. For the same compound, the 50% haemolytic concentration (HC50) in series [6] is above 160 µg/mL.
